Source: the supplement of paper PMC10307832

Experiments:
Assay in all cases: relative viability (nuclei count vs DMSO), 5 days (fraction); higher = more cells survive
[1] = system: LK-2
How it was run: (§1)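 One day after seeding in 1536-well plates, lung cancer cell lines were dosed by pin tool. Dosing was either single-drug or a fixed anchor-drug dose plus five library-drug doses (not always all listed) in √10 steps. After 5 days, nuclei were stained in one fix-and-stain step and counted on 4× images, and relative viability is the nuclei count of treated wells over that of vehicle wells, given as the median of duplicate plates.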

[2] = system: BEN
How it was run: as §1

[3] = system: HCC-366
How it was run: as §1

[4] = system: NCI-H1650
How it was run: as §1

[5] = system: NCI-H2170
How it was run: as §1

[6] = system: 201T
How it was run: as §1

[7] = system: NCI-H2009
How it was run: as §1

[8] = system: NCI-H838
How it was run: as §1

[9] = system: EKVX
How it was run: as §1

[10] = system: COR-L 105
How it was run: as §1

[11] = system: SW 900
How it was run: as §1

[12] = system: COR-L23
How it was run: as §1

[13] = system: NCI-H1666
How it was run: as §1

[14] = system: NCI-H2023
How it was run: as §1

[15] = system: NCI-H727
How it was run: as §1

[16] = system: NCI-H661
How it was run: as §1

[17] = system: NCI-H441
How it was run: as §1

[18] = system: LU99A
How it was run: as §1

[19] = system: ABC-1
How it was run: as §1

[20] = system: HARA
How it was run: as §1

[21] = system: PC-14
How it was run: as §1

[22] = system: NCI-H3122
How it was run: as §1

[23] = system: NCI-H1437
How it was run: as §1

[24] = system: CAL-12T
How it was run: as §1

Compound CC(C)Oc1cc(Nc2nc(N[C@@H](C)c3ccc(F)cn3)ncc2Cl)n[nH]1 [AZ23] + Nc1ncn([C@H]2C[C@H](O)[C@@H](CO)O2)c(=O)n1 [Decitabine] (partner 2 µM) has a relative viability ([1]; first compound 0.01 µM) of 0.337, a relative viability ([1]; first compound 0.03162 µM) of 0.306 and a relative viability ([1]; first compound 0.3162 µM) of 0.272. The relative viability ([2]; first compound 0.01 µM) was 0.736, the relative viability ([2]; first compound 0.03162 µM) was 0.829 and the relative viability ([2]; first compound 0.3162 µM) was 0.667. For the same compound, the relative viability ([3]; first compound 0.01 µM) was 0.319, the relative viability ([3]; first compound 0.03162 µM) was 0.373 and the relative viability ([3]; first compound 0.3162 µM) was 0.333. It also gave a relative viability ([4]; first compound 0.01 µM) of 0.421, a relative viability ([4]; first compound 0.03162 µM) of 0.41 and a relative viability ([4]; first compound 0.3162 µM) of 0.481. For the same compound, the relative viability ([5]; first compound 0.01 µM) was 0.482, the relative viability ([5]; first compound 0.03162 µM) was 0.475 and the relative viability ([5]; first compound 0.3162 µM) was 0.483. The relative viability ([6]; first compound 0.01 µM) was 0.91, the relative viability ([6]; first compound 0.03162 µM) was 0.875 and the relative viability ([6]; first compound 0.3162 µM) was 0.86. It also gave a relative viability ([7]; first compound 0.01 µM) of 0.406, a relative viability ([7]; first compound 0.03162 µM) of 0.356 and a relative viability ([7]; first compound 0.3162 µM) of 0.396. For the same compound, the relative viability ([8]; first compound 0.01 µM) was 0.487, the relative viability ([8]; first compound 0.03162 µM) was 0.506 and the relative viability ([8]; first compound 0.3162 µM) was 0.44. It also gave a relative viability ([9]; first compound 0.01 µM) of 0.395, a relative viability ([9]; first compound 0.03162 µM) of 0.365 and a relative viability ([9]; first compound 0.3162 µM) of 0.345. For the same compound, the relative viability ([10]; first compound 0.01 µM) was 0.547, the relative viability ([10]; first compound 0.03162 µM) was 0.65 and the relative viability ([10]; first compound 0.3162 µM) was 0.708. For the same compound, the relative viability ([11]; first compound 0.01 µM) was 0.442, the relative viability ([11]; first compound 0.3162 µM) was 0.352 and the relative viability ([12]; first compound 0.01 µM) was 0.361. It also gave a relative viability ([12]; first compound 0.03162 µM) of 0.497, a relative viability ([12]; first compound 0.3162 µM) of 0.449 and a relative viability ([13]; first compound 0.01 µM) of 0.711. For the same compound, the relative viability ([13]; first compound 0.03162 µM) was 0.755, the relative viability ([13]; first compound 0.3162 µM) was 0.672 and the relative viability ([14]; first compound 0.03162 µM) was 0.259. It also gave a relative viability ([14]; first compound 0.3162 µM) of 0.239, a relative viability ([15]; first compound 0.01 µM) of 0.956 and a relative viability ([15]; first compound 0.03162 µM) of 0.945. It also gave a relative viability ([15]; first compound 0.3162 µM) of 0.822, a relative viability ([16]; first compound 0.01 µM) of 0.556 and a relative viability ([16]; first compound 0.03162 µM) of 0.582. The relative viability ([16]; first compound 0.3162 µM) was 0.604, the relative viability ([17]; first compound 0.01 µM) was 0.294 and the relative viability ([17]; first compound 0.03162 µM) was 0.248. It also gave a relative viability ([17]; first compound 0.3162 µM) of 0.239, a relative viability ([18]; first compound 0.01 µM) of 1.03 and a relative viability ([18]; first compound 0.03162 µM) of 0.85. The relative viability ([18]; first compound 0.3162 µM) was 0.829, the relative viability ([19]; first compound 0.01 µM) was 1 and the relative viability ([19]; first compound 0.03162 µM) was 1.22. It also gave a relative viability ([19]; first compound 0.3162 µM) of 0.96, a relative viability ([20]; first compound 0.01 µM) of 0.621 and a relative viability ([20]; first compound 0.03162 µM) of 0.581. The relative viability ([20]; first compound 0.3162 µM) was 0.504, the relative viability ([21]; first compound 0.01 µM) was 0.191 and the relative viability ([21]; first compound 0.03162 µM) was 0.213. For the same compound, the relative viability ([21]; first compound 0.3162 µM) was 0.263, the relative viability ([22]; first compound 0.01 µM) was 0.411 and the relative viability ([22]; first compound 0.03162 µM) was 0.455. For the same compound, the relative viability ([22]; first compound 0.3162 µM) was 0.469, the relative viability ([23]; first compound 0.01 µM) was 0.57 and the relative viability ([23]; first compound 0.03162 µM) was 0.552. For the same compound, the relative viability ([23]; first compound 0.3162 µM) was 0.56.
CC(C)Oc1cc(Nc2nc(N[C@@H](C)c3ccc(F)cn3)ncc2Cl)n[nH]1 [AZ23] + NC(=O)Nc1cc(-c2cccc(F)c2)sc1C(=O)N[C@H]1CCCNC1 [AZD7762] (partner 0.2 µM) gave a relative viability ([1]; first compound 0.03162 µM) of 0.472, a relative viability ([1]; first compound 0.3162 µM) of 0.411 and a relative viability ([2]; first compound 0.01 µM) of 0.659. The relative viability ([2]; first compound 0.03162 µM) was 0.759, the relative viability ([2]; first compound 0.3162 µM) was 0.746 and the relative viability ([24]; first compound 0.01 µM) was 0.614. The relative viability ([24]; first compound 0.03162 µM) was 0.689, the relative viability ([24]; first compound 0.3162 µM) was 0.717 and the relative viability ([3]; first compound 0.01 µM) was 0.239. The relative viability ([3]; first compound 0.03162 µM) was 0.423, the relative viability ([3]; first compound 0.3162 µM) was 0.496 and the relative viability ([5]; first compound 0.01 µM) was 0.885. The relative viability ([5]; first compound 0.03162 µM) was 0.887, the relative viability ([5]; first compound 0.3162 µM) was 1.06 and the relative viability ([6]; first compound 0.01 µM) was 0.321. The relative viability ([6]; first compound 0.03162 µM) was 0.576, the relative viability ([6]; first compound 0.3162 µM) was 0.743 and the relative viability ([8]; first compound 0.01 µM) was 0.934. It also gave a relative viability ([8]; first compound 0.03162 µM) of 1.05, a relative viability ([8]; first compound 0.3162 µM) of 0.991 and a relative viability ([9]; first compound 0.01 µM) of 0.625. For the same compound, the relative viability ([9]; first compound 0.03162 µM) was 0.837, the relative viability ([9]; first compound 0.3162 µM) was 0.676 and the relative viability ([11]; first compound 0.01 µM) was 0.556. For the same compound, the relative viability ([11]; first compound 0.3162 µM) was 0.74, the relative viability ([13]; first compound 0.01 µM) was 0.91 and the relative viability ([13]; first compound 0.03162 µM) was 0.772. It also gave a relative viability ([13]; first compound 0.3162 µM) of 0.977, a relative viability ([15]; first compound 0.01 µM) of 0.628 and a relative viability ([15]; first compound 0.03162 µM) of 0.802. The relative viability ([15]; first compound 0.3162 µM) was 0.597, the relative viability ([17]; first compound 0.01 µM) was 1.17 and the relative viability ([17]; first compound 0.03162 µM) was 1.03. It also gave a relative viability ([17]; first compound 0.3162 µM) of 1.33, a relative viability ([18]; first compound 0.01 µM) of 0.269 and a relative viability ([18]; first compound 0.03162 µM) of 0.444. The relative viability ([18]; first compound 0.3162 µM) was 0.507, the relative viability ([19]; first compound 0.03162 µM) was 1.23 and the relative viability ([19]; first compound 0.3162 µM) was 0.835. For the same compound, the relative viability ([20]; first compound 0.01 µM) was 0.252, the relative viability ([20]; first compound 0.03162 µM) was 0.485 and the relative viability ([20]; first compound 0.3162 µM) was 0.534. For the same compound, the relative viability ([21]; first compound 0.01 µM) was 0.326, the relative viability ([21]; first compound 0.03162 µM) was 0.339 and the relative viability ([21]; first compound 0.3162 µM) was 0.375. The relative viability ([22]; first compound 0.01 µM) was 1.22, the relative viability ([22]; first compound 0.03162 µM) was 1.03 and the relative viability ([22]; first compound 0.3162 µM) was 1.02. It also gave a relative viability ([23]; first compound 0.01 µM) of 1.17, a relative viability ([23]; first compound 0.03162 µM) of 1.18 and a relative viability ([23]; first compound 0.3162 µM) of 1.19.
